Measurements as given in ChEMBL document CHEMBL1201862, “PubChem BioAssay data set” (2004).
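Interpolation was linear, between the two tested concentrations surrounding the appropriate level; five concentrations were tested over 48 hours in 96-well plates. Abbreviation: GI50, concentration required for 50% inhibition of growth.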 Activity calls are given as the source filed them. Rule as the data show it: active = GI50 up to about 1.1 µM and inactive = higher.

What was measured:
Test in all cases: NCI anticancer screen, dose series, 48 h
786-0 = system: 786-0
A498 = system: A498
A549 = system: A549
ACHN = system: ACHN
BT-549 = system: BT-549
CAKI-1 = system: CAKI-1
CCRF-CEM = system: CCRF-CEM
COLO 205 = system: COLO 205
DU-145 = system: DU-145
EKVX = system: EKVX
HCC 2998 = system: HCC 2998
HCT-116 = system: HCT-116
HCT-15 = system: HCT-15
HL-60 = system: HL-60
HOP-62 = system: HOP-62
HOP-92 = system: HOP-92
HT-29 = system: HT-29
Hs-578T = system: Hs-578T
IGROV-1 = system: IGROV-1
K562 = system: K562
KM12 = system: KM12
LOX IMVI = system: LOX IMVI
M14 = system: M14
MCF7 = system: MCF7
MDA-MB-231 = system: MDA-MB-231
MDA-MB-435 = system: MDA-MB-435
MDA-N = system: MDA-N
MOLT-4 = system: MOLT-4
Malme-3M = system: Malme-3M
NCI-H226 = system: NCI-H226
NCI-H23 = system: NCI-H23
NCI-H460 = system: NCI-H460
NCI-H522 = system: NCI-H522
NCI/ADR-RES = system: NCI/ADR-RES
OVCAR-3 = system: OVCAR-3
OVCAR-4 = system: OVCAR-4
OVCAR-5 = system: OVCAR-5
OVCAR-8 = system: OVCAR-8
PC-3 = system: PC-3
RXF 393 = system: RXF 393
SF-268 = system: SF-268
SF-295 = system: SF-295
SF-539 = system: SF-539
SK-MEL-28 = system: SK-MEL-28
SK-MEL-2 = system: SK-MEL-2
SK-MEL-5 = system: SK-MEL-5
SK-OV-3 = system: SK-OV-3
SN12C = system: SN12C
SNB-19 = system: SNB-19
SNB-75 = system: SNB-75
SW-620 = system: SW-620
T47D = system: T47D
TK-10 = system: TK-10
U-251 = system: U-251
UACC-257 = system: UACC-257
UACC-62 = system: UACC-62
UO-31 = system: UO-31

Structure (SMILES): COc1ccc(OC)c2c(/C=C/c3ccc(N(C)C)cc3)ccnc12
- GI50 (786-0): 4.01 µM (inactive)
- GI50 (A498): > 10 µM (inactive)
- GI50 (A549): > 10 µM (inactive)
- GI50 (ACHN): 4.68 µM (inactive)
- GI50 (BT-549): > 10 µM (inactive)
- GI50 (CAKI-1): > 10 µM (inactive)
- GI50 (CCRF-CEM): 2.48 µM (inactive)
- GI50 (COLO 205): > 10 µM (inactive)
- GI50 (DU-145): > 10 µM (inactive)
- GI50 (EKVX): > 10 µM (inactive)
- GI50 (HCC 2998): > 10 µM (inactive)
- GI50 (HCT-116): 3.53 µM (inactive)
- GI50 (HCT-15): > 10 µM
- GI50 (HL-60): 1.91 µM (inactive)
- GI50 (HOP-62): > 10 µM (inactive)
- GI50 (HOP-92): 5.87 µM (inactive)
- GI50 (HT-29): 4.11 µM (inactive)
- GI50 (Hs-578T): 8.15 µM (inactive)
- GI50 (IGROV-1): > 10 µM (inactive)
- GI50 (K562): > 10 µM (inactive)
- GI50 (KM12): > 10 µM (inactive)
- GI50 (LOX IMVI): 2.94 µM (inactive)
- GI50 (M14): 7.36 µM (inactive)
- GI50 (MCF7): 3.52 µM (inactive)
- GI50 (MDA-MB-231): 8.34 µM (inactive)
- GI50 (MDA-MB-435): 5.21 µM (inactive)
- GI50 (MDA-N): 5.24 µM (inactive)
- GI50 (MOLT-4): 6.68 µM (inactive)
- GI50 (Malme-3M): 4.51 µM (inactive)
- GI50 (NCI-H226): > 10 µM (inactive)
- GI50 (NCI-H23): > 10 µM (inactive)
- GI50 (NCI-H460): 9.68 µM (inactive)
- GI50 (NCI-H522): 8.02 µM (inactive)
- GI50 (NCI/ADR-RES): > 10 µM (inactive)
- GI50 (OVCAR-3): > 10 µM (inactive)
- GI50 (OVCAR-4): 4.32 µM (inactive)
- GI50 (OVCAR-5): > 10 µM (inactive)
- GI50 (OVCAR-8): > 10 µM (inactive)
- GI50 (PC-3): > 10 µM (inactive)
- GI50 (RXF 393): > 10 µM (inactive)
- GI50 (SF-268): > 10 µM (inactive)
- GI50 (SF-295): > 10 µM (inactive)
- GI50 (SF-539): 2.77 µM (inactive)
- GI50 (SK-MEL-28): 3.3 µM (inactive)
- GI50 (SK-MEL-2): > 10 µM (inactive)
- GI50 (SK-MEL-5): > 10 µM (inactive)
- GI50 (SK-OV-3): > 10 µM (inactive)
- GI50 (SN12C): 8.05 µM (inactive)
- GI50 (SNB-19): > 10 µM (inactive)
- GI50 (SNB-75): 6.53 µM (inactive)
- GI50 (SW-620): > 10 µM (inactive)
- GI50 (T47D): > 10 µM (inactive)
- GI50 (TK-10): 5.58 µM (inactive)
- GI50 (U-251): 5.31 µM (inactive)
- GI50 (UACC-257): 4 µM (inactive)
- GI50 (UACC-62): 3.01 µM (inactive)
- GI50 (UO-31): 4.67 µM (inactive)
